The values below come from ChEMBL document CHEMBL5291721, “A preclinical secondary pharmacology resource illuminates target-adverse drug reaction associations of marketed drugs” (Nat Commun, 2023).

The AC50 is the concentration at which the activity in the assay is half-maximal.

Experiment [1] deals with T1, Alpha-1A adrenergic receptor (Homo sapiens, UniProt P35348).
T1 sequence (P35348 whole entry): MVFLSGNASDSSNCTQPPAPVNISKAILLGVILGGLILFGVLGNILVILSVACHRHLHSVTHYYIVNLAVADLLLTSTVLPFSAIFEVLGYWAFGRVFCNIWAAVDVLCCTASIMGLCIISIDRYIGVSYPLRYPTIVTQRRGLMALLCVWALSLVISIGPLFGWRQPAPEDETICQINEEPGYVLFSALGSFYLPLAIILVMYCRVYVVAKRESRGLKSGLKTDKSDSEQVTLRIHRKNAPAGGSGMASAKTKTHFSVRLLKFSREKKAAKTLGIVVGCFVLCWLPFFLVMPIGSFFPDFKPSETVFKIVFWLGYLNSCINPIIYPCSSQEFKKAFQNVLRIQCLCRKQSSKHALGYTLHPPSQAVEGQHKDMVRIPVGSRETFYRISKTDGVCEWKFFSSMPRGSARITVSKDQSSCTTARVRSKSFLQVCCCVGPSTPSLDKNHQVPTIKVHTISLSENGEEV

The target of another experiment is Melanocortin receptor 4 (Homo sapiens, UniProt P32245).
The next experiment concerns the target T2, Estrogen receptor (Homo sapiens, UniProt P03372).
T2 sequence (P03372 whole entry): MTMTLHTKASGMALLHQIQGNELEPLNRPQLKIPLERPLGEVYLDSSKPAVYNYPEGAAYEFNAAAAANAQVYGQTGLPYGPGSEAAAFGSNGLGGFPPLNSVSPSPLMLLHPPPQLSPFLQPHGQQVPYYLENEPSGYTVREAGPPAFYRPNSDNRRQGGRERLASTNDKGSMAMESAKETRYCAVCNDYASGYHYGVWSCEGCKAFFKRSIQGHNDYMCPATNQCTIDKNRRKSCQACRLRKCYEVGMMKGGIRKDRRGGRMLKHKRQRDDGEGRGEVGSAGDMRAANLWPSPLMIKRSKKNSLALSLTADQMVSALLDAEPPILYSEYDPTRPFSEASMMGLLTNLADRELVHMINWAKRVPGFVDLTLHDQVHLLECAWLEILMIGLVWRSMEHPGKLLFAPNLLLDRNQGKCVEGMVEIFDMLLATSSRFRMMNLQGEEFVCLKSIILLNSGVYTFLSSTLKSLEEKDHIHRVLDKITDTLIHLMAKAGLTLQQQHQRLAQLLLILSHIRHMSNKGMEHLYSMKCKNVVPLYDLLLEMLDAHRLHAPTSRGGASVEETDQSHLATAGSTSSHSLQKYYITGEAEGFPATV

Experiment [2] concerns the target Beta-2 adrenergic receptor (Homo sapiens, UniProt P07550). In kind it is functional, cell-based.
The next experiment addresses Cannabinoid receptor 1 (Homo sapiens, UniProt P21554). Type of experiment: functional, cell-based.
The target of experiment [3] is T1, Alpha-1A adrenergic receptor. Type of experiment: functional, cell-based.
For experiment [4], the target named is Muscarinic acetylcholine receptor M3 (Homo sapiens, UniProt P20309).
The target in the next experiment is T3, Endothelin-1 receptor (Homo sapiens, UniProt P25101).
T3 sequence (P25101 whole entry): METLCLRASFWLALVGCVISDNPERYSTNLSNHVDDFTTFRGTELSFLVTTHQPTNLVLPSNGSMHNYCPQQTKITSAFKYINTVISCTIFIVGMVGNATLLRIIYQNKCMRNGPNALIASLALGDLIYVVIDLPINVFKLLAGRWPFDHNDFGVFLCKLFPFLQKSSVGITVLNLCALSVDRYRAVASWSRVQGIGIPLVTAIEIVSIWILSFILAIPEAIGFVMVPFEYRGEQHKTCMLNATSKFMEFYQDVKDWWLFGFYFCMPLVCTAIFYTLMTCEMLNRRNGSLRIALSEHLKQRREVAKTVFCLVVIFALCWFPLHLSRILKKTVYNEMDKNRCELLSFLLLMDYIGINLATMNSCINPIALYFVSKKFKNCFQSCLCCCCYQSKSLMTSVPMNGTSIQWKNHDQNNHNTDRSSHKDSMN

Experiment [5] deals with T4, Alpha-2B adrenergic receptor (Homo sapiens, UniProt P18089).
T4 sequence (P18089 whole entry): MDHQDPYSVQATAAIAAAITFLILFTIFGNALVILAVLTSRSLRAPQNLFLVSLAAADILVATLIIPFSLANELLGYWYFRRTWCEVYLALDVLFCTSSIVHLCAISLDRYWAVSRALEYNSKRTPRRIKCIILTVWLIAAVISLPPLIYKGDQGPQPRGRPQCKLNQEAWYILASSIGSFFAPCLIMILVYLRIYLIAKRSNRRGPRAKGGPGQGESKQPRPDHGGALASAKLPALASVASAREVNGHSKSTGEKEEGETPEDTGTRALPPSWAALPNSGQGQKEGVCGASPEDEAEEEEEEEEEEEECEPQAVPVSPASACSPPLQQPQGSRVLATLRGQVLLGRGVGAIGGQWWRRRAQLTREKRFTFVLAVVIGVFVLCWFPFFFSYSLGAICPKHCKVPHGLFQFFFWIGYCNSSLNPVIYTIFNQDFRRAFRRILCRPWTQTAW
Also: assay procedure not described here.

Chain of Beta-2 adrenergic receptor (P07550 whole entry): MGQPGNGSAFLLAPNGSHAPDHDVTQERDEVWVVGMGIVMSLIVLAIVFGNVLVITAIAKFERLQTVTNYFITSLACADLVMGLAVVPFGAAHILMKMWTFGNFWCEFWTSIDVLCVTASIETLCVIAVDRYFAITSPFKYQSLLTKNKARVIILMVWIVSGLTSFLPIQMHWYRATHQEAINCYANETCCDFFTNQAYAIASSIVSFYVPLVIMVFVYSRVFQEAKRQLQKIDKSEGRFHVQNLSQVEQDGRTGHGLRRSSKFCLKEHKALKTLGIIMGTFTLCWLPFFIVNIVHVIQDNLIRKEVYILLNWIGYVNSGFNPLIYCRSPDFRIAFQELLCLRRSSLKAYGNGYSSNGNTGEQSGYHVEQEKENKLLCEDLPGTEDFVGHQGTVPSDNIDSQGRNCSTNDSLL
Chain of Melanocortin receptor 4 (P32245 whole entry): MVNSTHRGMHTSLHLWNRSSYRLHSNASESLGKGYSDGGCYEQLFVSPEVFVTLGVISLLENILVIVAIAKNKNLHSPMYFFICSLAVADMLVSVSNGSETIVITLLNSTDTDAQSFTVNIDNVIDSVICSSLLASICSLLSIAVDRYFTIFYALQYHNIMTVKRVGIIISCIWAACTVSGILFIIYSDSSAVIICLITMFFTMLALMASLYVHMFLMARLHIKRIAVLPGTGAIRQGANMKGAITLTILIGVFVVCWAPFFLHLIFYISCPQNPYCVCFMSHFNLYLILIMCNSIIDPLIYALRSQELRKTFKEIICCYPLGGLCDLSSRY
Chain of Muscarinic acetylcholine receptor M3 (P20309 whole entry): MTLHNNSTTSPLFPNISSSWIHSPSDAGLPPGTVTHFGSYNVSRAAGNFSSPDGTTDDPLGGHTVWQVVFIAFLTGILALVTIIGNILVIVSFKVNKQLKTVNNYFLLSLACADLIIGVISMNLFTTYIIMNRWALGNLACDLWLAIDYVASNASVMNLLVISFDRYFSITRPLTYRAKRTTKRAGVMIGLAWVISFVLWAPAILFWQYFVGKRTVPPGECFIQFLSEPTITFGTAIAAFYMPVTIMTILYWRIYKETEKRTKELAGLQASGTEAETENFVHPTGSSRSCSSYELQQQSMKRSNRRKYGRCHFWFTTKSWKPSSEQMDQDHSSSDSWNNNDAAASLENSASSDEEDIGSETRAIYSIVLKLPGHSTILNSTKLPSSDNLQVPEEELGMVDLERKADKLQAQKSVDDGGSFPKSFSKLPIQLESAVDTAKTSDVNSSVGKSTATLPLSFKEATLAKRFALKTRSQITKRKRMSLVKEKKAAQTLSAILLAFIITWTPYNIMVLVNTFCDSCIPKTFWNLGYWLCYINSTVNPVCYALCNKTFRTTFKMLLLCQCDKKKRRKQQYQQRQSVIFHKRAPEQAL
Chain of Cannabinoid receptor 1 (P21554 whole entry): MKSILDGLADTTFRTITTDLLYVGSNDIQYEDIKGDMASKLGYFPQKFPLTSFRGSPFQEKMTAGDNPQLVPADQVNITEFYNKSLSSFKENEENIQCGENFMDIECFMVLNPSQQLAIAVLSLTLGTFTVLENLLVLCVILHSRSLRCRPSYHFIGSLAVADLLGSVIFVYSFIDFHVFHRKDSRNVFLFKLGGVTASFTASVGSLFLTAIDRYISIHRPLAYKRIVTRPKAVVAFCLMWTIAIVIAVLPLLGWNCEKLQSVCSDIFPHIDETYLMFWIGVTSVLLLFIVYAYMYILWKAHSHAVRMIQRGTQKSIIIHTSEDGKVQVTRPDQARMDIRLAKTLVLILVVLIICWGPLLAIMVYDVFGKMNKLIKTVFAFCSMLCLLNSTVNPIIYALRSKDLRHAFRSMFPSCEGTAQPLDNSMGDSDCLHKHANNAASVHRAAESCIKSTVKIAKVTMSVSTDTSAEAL

With `CCC1(CCC(C)C)C(=O)NC(=O)NC1=O` [AMOBARBITAL], the AC50 (in [1]; at Melanocortin receptor 4) was above 10 µM throughout.

As for `COc1ccc(C2C(=O)c3ccccc3C2=O)cc1` [ANISINDIONE], the AC50 was above 30 µM in [1], above 10 µM at Melanocortin receptor 4 and above 30 µM on Estrogen receptor.

Consider `Cc1cc(=O)n(-c2ccccc2)n1C` [ANTIPYRINE], for which the AC50 was above 30 µM in experiment [2]; above 10 µM in experiment [1]; above 30 µM at Cannabinoid receptor 1; above 30 µM in experiment [3]; above 30 µM on Melanocortin receptor 4; above 30 µM at Estrogen receptor.

`O=C(O)CCNC(=O)c1ccc(/N=N/c2ccc(O)c(C(=O)O)c2)cc1` [BALSALAZIDE]: the AC50 (in experiment [1]; at Melanocortin receptor 4; on Estrogen receptor) was above 30 µM each time.

On to `O=C(CCCN1CCC(O)(c2ccc(Br)cc2)CC1)c1ccc(F)cc1` [BROMPERIDOL], for which the AC50 was 12 µM in experiment [4]; above 30 µM on Endothelin-1 receptor; above 30 µM in experiment [2]; above 30 µM on Cannabinoid receptor 1; 0.28 µM in experiment [3]; above 30 µM on Estrogen receptor.

Take `COc1cc(N)c(Cl)cc1C(=O)NC1CCN(CCCOc2ccc(F)cc2)CC1OC` (stereo not given) [CISAPRIDE]: the AC50 on Endothelin-1 receptor is above 30 µM; in [2], above 30 µM; in experiment [1] it was 0.593 µM; at Cannabinoid receptor 1 it was above 30 µM; on Melanocortin receptor 4, above 30 µM; at Estrogen receptor, above 30 µM.

With `CCOC(=O)C(C)(C)Oc1ccc(Cl)cc1` [CLOFIBRATE], the AC50 is above 30 µM on Endothelin-1 receptor; above 30 µM in experiment [2]; above 10 µM in [1]; above 30 µM at Cannabinoid receptor 1; above 30 µM in [3]; above 30 µM at Melanocortin receptor 4. For the same compound, the AC50 on Estrogen receptor was above 30 µM.

Consider `C[C@@H]1C[C@H]2[C@@H]3CCC4=CC(=O)C=C[C@]4(C)[C@@]3(F)[C@@H](O)C[C@]2(C)[C@@]1(O)C(=O)CO` [DEXAMETHASONE], for which the concentration at half-maximal activity (AC50) (in experiment [1]; at Melanocortin receptor 4) was above 30 µM each time.

For the compound `CCN1CC(CCN2CCOCC2)C(c2ccccc2)(c2ccccc2)C1=O` (stereo not given) [DOXAPRAM], the AC50 (at Endothelin-1 receptor; on Cannabinoid receptor 1; in experiment [3]) was above 30 µM each time.

For the compound `CC(C)NC[C@H](O)COc1ccc(CC(N)=O)cc1` [ESATENOLOL], the AC50 at Endothelin-1 receptor was above 30 µM; in experiment [1] it was above 10 µM; on Melanocortin receptor 4, above 30 µM; at Estrogen receptor, above 30 µM.

As to `CCOC(=O)c1ncn2c1CN(C)C(=O)c1cc(F)ccc1-2` [FLUMAZENIL], the AC50 is above 10 µM in experiment [1], above 30 µM in experiment [3], above 30 µM at Melanocortin receptor 4 and above 30 µM at Estrogen receptor.

Take `NNC(=O)c1ccncc1` [ISONIAZID]: the AC50 on Endothelin-1 receptor is above 30 µM; in experiment [1], above 10 µM; on Cannabinoid receptor 1 it was above 30 µM; in [3], above 30 µM; at Melanocortin receptor 4, above 30 µM; on Estrogen receptor, above 30 µM.

In the case of `O=C1Nc2ccc(Cl)cc2C(c2ccccc2Cl)=NC1O` (stereo not given) [LORAZEPAM], the concentration at half-maximal activity (AC50) on Endothelin-1 receptor was above 30 µM; in experiment [2], above 30 µM; in experiment [1], above 10 µM; on Cannabinoid receptor 1, above 30 µM; in experiment [3], above 30 µM; on Melanocortin receptor 4, above 30 µM. At Estrogen receptor, this compound came in with an AC50 above 30 µM.

Regarding `COc1ccc2cc(CCC(C)=O)ccc2c1` [NABUMETONE], the results for the AC50 (in experiment [1]; in experiment [3]; on Melanocortin receptor 4) were above 30 µM, above 30 µM and above 10 µM, respectively.

For the compound `Cc1ccnc2c1NC(=O)c1cccnc1N2C1CC1` [NEVIRAPINE], the AC50 at Endothelin-1 receptor is above 30 µM; in [2] it was above 30 µM; in experiment [1], above 10 µM; at Cannabinoid receptor 1 it was above 30 µM; in [3], above 30 µM; at Melanocortin receptor 4, above 30 µM.

As for `C[C@]12C/C(=C/O)C(=O)C[C@@H]1CC[C@@H]1[C@@H]2CC[C@@]2(C)[C@H]1CC[C@]2(C)O` [OXYMETHOLONE], the AC50 (at Endothelin-1 receptor; in experiment [2]; on Cannabinoid receptor 1; in experiment [3]; on Estrogen receptor) was above 30 µM in each case.

Take `Fc1ccc([C@@H]2CCNC[C@H]2COc2ccc3c(c2)OCO3)cc1` [PAROXETINE]: the AC50 on Endothelin-1 receptor, at Melanocortin receptor 4 and at Estrogen receptor was above 30 µM in each case.

For `NC(=O)NC(=O)Cc1ccccc1` [PHENACEMIDE], the AC50 (in [1]; on Melanocortin receptor 4; on Estrogen receptor) was above 10 µM each time.

Consider `CCCN(CCC)S(=O)(=O)c1ccc(C(=O)O)cc1` [PROBENECID], for which the AC50 (in experiment [1]; at Melanocortin receptor 4) was above 10 µM in each case.

As for `CCC(=O)O[C@](Cc1ccccc1)(c1ccccc1)[C@H](C)CN(C)C` [PROPOXYPHENE], the AC50 in experiment [4] is 16 µM; at Endothelin-1 receptor, above 30 µM; in [2], above 30 µM; in [1], 8.05 µM; on Cannabinoid receptor 1 it was above 30 µM; in [3], above 30 µM. Further, the AC50 was above 10 µM in experiment [5] and above 30 µM at Melanocortin receptor 4.

Take `O=c1c(O)c(-c2ccc(O)c(O)c2)oc2cc(O)cc(O)c12` [QUERCETIN]: the AC50 in experiment [4] was above 30 µM; at Endothelin-1 receptor, above 30 µM; in experiment [5], above 10 µM; on Melanocortin receptor 4, above 30 µM; at Estrogen receptor it was above 30 µM.

As for `Cc1cc(C)nc(NS(=O)(=O)c2ccc(N)cc2)n1` [SULFAMETHAZINE], the results for the AC50 (in [1]; on Melanocortin receptor 4) were above 30 µM and above 10 µM, respectively.

`CCOC(=O)c1ccc(C#Cc2ccc3c(c2)C(C)(C)CCS3)nc1` [TAZAROTENE]: the AC50 in experiment [4] was above 30 µM; in experiment [2] it was above 30 µM; in experiment [1], above 10 µM; in experiment [3], above 30 µM; in experiment [5] it was above 10 µM; on Melanocortin receptor 4 it was above 30 µM.

For the compound `CCOC(=O)[C@@H](N)Cc1ccc(-c2cc(O[C@H](c3ccc(Cl)cc3-n3ccc(C)n3)C(F)(F)F)nc(N)n2)cc1` [TELOTRISTAT ETHYL], the AC50 in [4] is above 30 µM; at Endothelin-1 receptor, above 30 µM; in experiment [2], above 30 µM; in experiment [3], above 30 µM; in experiment [5] it was 29 µM.

`COc1cc(C(=O)NC2CCCNC2)cc(OC)c1OC` (stereo not given) [TROXIPIDE]: the AC50 (on Endothelin-1 receptor; on Cannabinoid receptor 1; in experiment [3]) was above 30 µM each time.

Regarding `CC(c1cc2ccccc2s1)N(O)C(N)=O` (stereo not given) [ZILEUTON], the AC50 in experiment [1] is above 10 µM; on Cannabinoid receptor 1, above 30 µM; in [3], above 30 µM; on Melanocortin receptor 4 it was above 10 µM; at Estrogen receptor it was above 30 µM.
